Results published in patent US8642640B2, “1-phenylpyrrole derivatives” (Exelixis, Inc., priority 2008, dated 2014).

Target: T1, human mineralocorticoid receptor (hMR) (Homo sapiens, UniProt P08235)
T1 construct: expressed in transfected cells; host or cells: HEK293
T1 sequence (P08235 726-964 limits assumed): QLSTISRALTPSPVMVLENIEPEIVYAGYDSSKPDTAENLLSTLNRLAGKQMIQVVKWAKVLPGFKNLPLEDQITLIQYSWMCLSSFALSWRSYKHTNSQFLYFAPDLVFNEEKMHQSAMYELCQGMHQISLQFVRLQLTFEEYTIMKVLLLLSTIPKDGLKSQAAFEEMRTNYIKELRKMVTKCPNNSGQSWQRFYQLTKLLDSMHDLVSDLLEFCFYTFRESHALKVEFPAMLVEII
Experiment: GAL4-hMR-LBD luciferase reporter assay in HEK293 cells with 1 nM aldosterone (Test Example 1);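 for Imax: 0% is DMSO-only control and 100% is 1 nM aldosterone alone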
Assay type: cell-based
Conditions: for IC50: concentration showing Imax/2, HEK293, GAL4-hMR-LBD, 1 nM aldosterone, overnight, read-out: ICmax50; for Emax: HEK293, read-out: Imax
Method: A plasmid pM-hMR-LBD expressing GAL4-hMR receptor, which has a ligand binding domain (LBD, corresponding to approximately 308 amino acids at the carboxy terminus) of human mineralocorticoid receptor (hMR, NM_000901) bonded to a DNA binding domain of yeast transcription factor GAL4 (corresponding to 147 amino acids at the amino terminus), was prepared. Reporter assay was conducted by using a reporter plasmid (such as plasmid pFR-Luc of […] CLONING SYSTEMS) including a luciferase gene, having a sequence (UAS sequence) which binds to the DNA binding domain of GAL4.
The plasmid pM-hMR-LBD and the reporter plasmid as obtained above were gene transferred into renal cell line HEK293 of human fetus by lipofection. On the next day, cells were collected by trypsin treatment, and dispensed with DMEM culture medium containing 5% of FBS treated by activated charcoal, to a white 96-well plate (Costar) with the amount of 95 microliter per well.
The test compounds were used as dissolved in dimethyl sulfoxide at a predetermined concentration, and the test compounds suitably diluted with culture media were added to the cells on the white 96-well plate so that the final concentration becomes 0.1%. […] After the addition, cultivation was carried out overnight.
On the next day, the culture media was removed, and then luciferase substrate (Wako Pure Chemical Industries, Ltd.) was prepared in accordance with the attached document and were added to each well by 50 microliters. Stirring was conducted for approximately 30 minutes, and the amount of luminescence was measured for each well by using Analyst (Molecular Devices), to obtain luciferase activity. A graph which plots relative luciferase activity values, when the luciferase activity value of Control group 1 was taken as 0% and the luciferase activity value of Control group 2 was taken as 100%, for each of the amount of the test compound addition group was made.

| SMILES | IC50 [nM] | Emax [%] |
| --- | --- | --- |
| CCc1c(C(=O)Nc2ccc(S(C)(=O)=O)cc2)cc(C[C@H](C)O)n1-c1ccc(F)cc1Cl (single isomer, unassigned) [Example 44 - isomer A] | > 1000 | – |
| Cc1c(C(=O)Nc2ccc(S(N)(=O)=O)c(Cl)c2)cc(C[C@H](C)O)n1-c1ccc(F)cc1C(F)(F)F (single isomer, unassigned) [Example 12 - isomer A] | 3.1 | 113 |
| Cc1cc(Cl)ccc1-n1c(CCF)cc(C(=O)Nc2ccc(S(C)(=O)=O)cc2)c1C [Example 51, 1-(4-Chloro-2-methylphenyl)-5-(2-fluoroethyl)-2-methyl-N-[4-(methylsulfonyl)phenyl]-1H-pyrrole-3-carboxamide] | 19 | 115 |
| Cc1c(C(=O)Nc2ccc(S(N)(=O)=O)c(Cl)c2)cc(C[C@H](C)O)n1-c1ccc(F)cc1C(F)(F)F [Example 12, N-[4-(Aminosulfonyl)-3-chlorophenyl]-1-[4-fluoro-2-(trifluoromethyl)phenyl]-5-[(2S)-2-hydroxypropyl]-2-methyl-1H-pyrrole-3-carboxamide] | 6.8 | 108 |
| Cc1c(C(=O)Nc2ccc(S(C)(=O)=O)cc2)cc(CCF)n1-c1ccc(F)cc1OC(F)F [Example 54, 1-[2-(Difluoromethoxy)-4-fluorophenyl]-5-(2-fluoroethyl)-2-methyl-N-[4-(methylsulfonyl)phenyl]-1H-pyrrole-3-carboxamide] | 14 | 75 |
| Cc1c(C(=O)Nc2ccc(S(C)(=O)=O)cc2)cc(C[C@H](C)O)n1-c1ccc(F)cc1C(F)(F)F [Example 5, 1-[4-Fluoro-2-(trifluoromethyl)phenyl]-5-[(2S)-2-hydroxypropyl]-2-methyl-N-[4-(methylsulfonyl)phenyl]-1H-pyrrole-3-carboxamide] | 3.9 | 125 |
| Cc1c(C(=O)Nc2ccc(S(N)(=O)=O)c(Cl)c2)cc(C[C@H](C)O)n1-c1ccc(F)cc1C(F)(F)F (single isomer, unassigned) [Example 12 - isomer B] | > 1000 | – |
| Cc1c(C(=O)Nc2ccc(S(C)(=O)=O)cc2)cc(C[C@H](C)O)n1-c1ccc(Cl)cc1C(F)(F)F [Example 6, 1-[4-Chloro-2-(trifluoromethyl)phenyl]-5-[(2S)-2-hydroxypropyl]-2-methyl-N-[4-(methylsulfonyl)phenyl]-1H-pyrrole-3-carboxamide] | 6.2 | 92 |
| Cc1c(C(=O)Nc2ccc(S(C)(=O)=O)cc2)cc(C[C@H](C)O)n1-c1ccc(F)cc1OC(F)F (single isomer, unassigned) [Example 9 - isomer B] | > 1000 | – |
| Cc1c(C(=O)Nc2ccc(S(C)(=O)=O)cc2)cc(C[C@H](C)O)n1-c1ccc(Cl)cc1-c1ccc(F)cc1 [Example 50, 1-(5-Chloro-4′-fluorobiphenyl-2-yl)-5-[(2S)-2-hydroxypropyl]-2-methyl-N-[4-(methylsulfonyl)phenyl]-1H-pyrrole-3-carboxamide] | 2.7 | 114 |
| Cc1cc(NC(=O)c2cc(C[C@H](C)O)n(-c3ccc(F)cc3OC(F)F)c2C)ccc1S(C)(=O)=O [Example 22, 1-[2-(Difluoromethoxy)-4-fluorophenyl]-5-[(2S)-2-hydroxypropyl]-2-methyl-N-[3-methyl-4-(methylsulfonyl)phenyl]-1H-pyrrole-3-carboxamide] | 9.1 | 111 |
| Cc1c(C(=O)Nc2ccc(S(C)(=O)=O)cc2)cc(C[C@H](C)O)n1-c1ccc(Cl)cc1C(F)(F)F (single isomer, unassigned) [Example 6 - isomer B] | > 1000 | – |
| Cc1c(C(=O)Nc2ccc(S(C)(=O)=O)cc2)cc(CCO)n1-c1ccc(Cl)cc1C(F)(F)F [Example 1, 1-[4-Chloro-2-(trifluoromethyl)phenyl]-5-(2-hydroxyethyl)-2-methyl-N-[4-(methylsulfonyl)phenyl]-1H-pyrrole-3-carboxamide] | 11 | 110 |
| Cc1c(C(=O)Nc2ccc(S(C)(=O)=O)cc2)cc(C[C@H](C)O)n1-c1ccc(Cl)cc1Oc1ccc(F)cc1 (single isomer, unassigned) [Example 45 - isomer B] | > 1000 | – |
| Cc1c(C(=O)Nc2ccc(S(C)(=O)=O)cc2)cc(CCF)n1-c1ccc(F)cc1OC(F)F (single isomer, unassigned) [Example 54 - isomer B, 1-[2-(Difluoromethoxy)-4-fluorophenyl]-5-(2-fluoroethyl)-2-methyl-N-[4-(methylsulfonyl)phenyl]-1H-pyrrole-3-carboxamide] | > 1000 | – |
| Cc1c(C(=O)Nc2ccc(S(C)(=O)=O)cc2)cc(C[C@H](C)O)n1-c1ccc(F)cc1Cl [Example 40, 1-(2-Chloro-4-fluorophenyl)-5-[(2S)-2-hydroxypropyl]-2-methyl-N-[4-(methylsulfonyl)phenyl]-1H-pyrrole-3-carboxamide] | 26 | 112 |
| Cc1c(C(=O)Nc2ccc(S(C)(=O)=O)cc2)cc(C[C@H](C)O)n1-c1ccc(Cl)cc1Cl (single isomer, unassigned) [Example 43 - isomer B] | > 1000 | – |
| Cc1c(C(=O)Nc2ccc(S(N)(=O)=O)c(Cl)c2)cc(C[C@H](C)O)n1-c1ccc(F)cc1Cl (single isomer, unassigned) [Example 49 - isomer B] | 4.5 | 104 |
| Cc1c(C(=O)Nc2ccc(S(C)(=O)=O)cc2)cc(C[C@H](C)O)n1-c1ccc(Cl)cc1Oc1ccc(F)cc1 (single isomer, unassigned) [Example 45 - isomer A] | 1.9 | 105 |
| Cc1c(C(=O)Nc2ccc(S(C)(=O)=O)cc2)cc(C[C@H](C)O)n1-c1ccc(Cl)cc1-c1ccc(F)cc1 (single isomer, unassigned) [Example 50 - isomer A] | > 1000 | – |
| Cc1c(C(=O)Nc2ccc(S(C)(=O)=O)cc2)cc(C[C@H](C)O)n1-c1ccc(Cl)cc1OC(F)(F)F [Example 42, 1-[4-Chloro-2-(trifluoromethoxy)phenyl]-5-[(2S)-2-hydroxypropyl]-2-methyl-N-[4-(methylsulfonyl)phenyl]-1H-pyrrole-3-carboxamide] | 4.8 | 110 |
| Cc1c(C(=O)Nc2ccc(S(N)(=O)=O)c(Cl)c2)cc(C[C@H](C)O)n1-c1ccc(F)cc1Cl [Example 49, N-[4-(Aminosulfonyl)-3-chlorophenyl]-1-(2-chloro-4-fluorophenyl)-5-[(2S)-2-hydroxypropyl]-2-methyl-1H-pyrrole-3-carboxamide] | 8.3 | 96 |
| Cc1cc(Cl)ccc1-n1c(CCF)cc(C(=O)Nc2ccc(S(C)(=O)=O)cc2)c1C (single isomer, unassigned) [Example 51 - isomer B, 1-(4-Chloro-2-methylphenyl)-5-(2-fluoroethyl)-2-methyl-N-[4-(methylsulfonyl)phenyl]-1H-pyrrole-3-carboxamide] | > 1000 | – |
| CCc1c(C(=O)Nc2ccc(S(C)(=O)=O)cc2)cc(C[C@H](C)O)n1-c1ccc(F)cc1Cl [Example 44, 1-(2-Chloro-4-fluorophenyl)-2-ethyl-5-[(2S)-2-hydroxypropyl]-N-[4-(methylsulfonyl)phenyl]-1H-pyrrole-3-carboxamide] | 24 | 111 |
| Cc1c(C(=O)Nc2ccc(S(C)(=O)=O)cc2)cc(C[C@H](C)O)n1-c1ccc(Cl)cc1OC(F)(F)F (single isomer, unassigned) [Example 42 - isomer A] | > 1000 | – |
| Cc1c(C(=O)Nc2ccc(S(C)(=O)=O)cc2)cc(C[C@H](C)O)n1-c1ccc(F)cc1Cl (single isomer, unassigned) [Example 40 - isomer B] | > 1000 | – |
| Cc1c(C(=O)Nc2ccc(S(C)(=O)=O)cc2)cc(CC(=O)N(C)C)n1-c1ccc(Cl)cc1C(F)(F)F [Example 61, 1-[4-Chloro-2-(trifluoromethyl)phenyl]-5-[2-(dimethylamino)-2-oxoethyl]-2-methyl-N-[4-(methylsulfonyl)phenyl]-1H-pyrrole-3-carboxamide] | 5.5 | 115 |
| Cc1c(C(=O)Nc2ccc(S(C)(=O)=O)cc2)cc(C[C@H](C)O)n1-c1ccc(F)cc1OC(F)F [Example 9, 1-[2-(Difluoromethoxy)-4-fluorophenyl]-5-[(2S)-2-hydroxypropyl]-2-methyl-N-[4-(methylsulfonyl)phenyl]-1H-pyrrole-3-carboxamide] | 41 | 114 |
| Cc1c(C(=O)Nc2ccc(S(N)(=O)=O)c(Cl)c2)cc(C[C@H](C)O)n1-c1ccc(F)cc1Cl (single isomer, unassigned) [Example 49 - isomer A] | > 1000 | – |
